Data on 15 compounds can be found in patent US10894775B2, “Piperidine derivatives as liver X receptor beta agonists, compositions, and their use” (Merck Sharp & Dohme Corp., priority 2016, dated 2021).

The target of test [1] is T1, glutathione-S-transferase (GST) tagged LXRbeta LBD (ligand binding domain) (Homo sapiens, UniProt P55055).
T1 construct: purchased Invitrogen pv4658.pps
T1 sequence (P55055 222-460 limits assumed): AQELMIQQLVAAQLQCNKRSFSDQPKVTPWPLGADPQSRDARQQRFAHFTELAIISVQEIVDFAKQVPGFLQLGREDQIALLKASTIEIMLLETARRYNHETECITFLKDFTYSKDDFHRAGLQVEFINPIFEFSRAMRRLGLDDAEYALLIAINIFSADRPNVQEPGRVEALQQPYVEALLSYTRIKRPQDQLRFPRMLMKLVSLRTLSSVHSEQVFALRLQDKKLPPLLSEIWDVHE
Description: LanthaScreen TR-FRET Liver X Receptor Coactivator Assay, LXR beta. In kind it is biochemical. The conditions noted are these: for Emax: read-out: LXR beta actiivty at max dose (%); for EC50: potency (Inflection Point) of compound-induced co-activator recruitment, TR-FRET. On the procedure:
(§1) While running the LanthaScreen™ TR-FRET Liver X Receptor Coactivator Assay, LXR alpha-LBD or LXR beta-LBD was added to ligand test compounds followed by addition of a mixture of a fluorescein-labelled coactivator peptide and terbium-conjugated anti-GST antibody. After an incubation period at room temperature, TR-FRET (time-resolved fluorescence resonance energy transfer) was measured using a filter-based instrument capable of TR-FRET, e.g. PerkinElmer Envision.

Test [2] has as its target T2, glutathione-S-transferase (GST) tagged LXRalpha LBD (ligand binding domain) (Homo sapiens, UniProt Q13133).
T2 construct: purchased Invitrogen pv4655
T2 sequence (Q13133 209-447 limits assumed): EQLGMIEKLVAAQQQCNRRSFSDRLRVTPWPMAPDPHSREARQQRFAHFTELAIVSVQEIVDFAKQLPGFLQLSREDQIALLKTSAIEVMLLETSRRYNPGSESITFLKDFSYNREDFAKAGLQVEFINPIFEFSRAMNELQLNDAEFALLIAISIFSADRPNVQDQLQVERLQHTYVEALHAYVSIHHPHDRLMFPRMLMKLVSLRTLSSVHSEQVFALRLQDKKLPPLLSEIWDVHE
Description: LanthaScreen TR-FRET Liver X Receptor Coactivator Assay, LXR alpha. The format is biochemical. The conditions noted are these: for Emax: efficacy (Emax) in relation to reference dual agonist T0901317, read-out: LXR alpha actiivty at max dose (%); for LXR alpha IP (nM) / EC50: potency (Inflection Point) of compound-induced co-activator recruitment, TR-FRET; for EC50: read-out: LXR alpha IP. As for the experimental part:
as §1

[3] abbreviates: efficacy (Emax) in relation to reference dual agonist T0901317.

Like-named read-outs stand apart in the source and are kept apart here.

On to `COc1cccc([C@@](O)(C(=O)N2CCC(CCCC(C)Nc3ccc(C(=O)N(C)C)c(Cl)c3)CC2)C(F)(F)F)c1` (single isomer, unassigned) [Example 4-5, 2-chloro-N,N-dimethyl-4-((R or S)-5-(1-((R or S)-3,3,3-trifluoro-2-hydroxy-2-(3-methoxyphenyl)propanoyl)piperidin-4-yl)pentan-2-ylamino)benzamide], for which the Emax was found to be 17% in test [1] (setting [3]) and 0% in test [2]. For the same compound, the EC50 in test [1] (read-out: LXR beta IP) was 3770 nM. The “LXR alpha IP (nM)” value in test [2] was “No IP”.
Turning to `CC(CC1CC12CCN(C(=O)C1(c3ccccc3)CCC1)CC2)Nc1ccc(C(=O)N(C)C)c(Cl)c1` (single isomer, unassigned) [Example 5-1, 2-chloro-N,N-dimethyl-4-(1-((S or R)-6-(1-phenylcyclobutanecarbonyl)-6-azaspiro[2.5]octan-1-yl)propan-2-ylamino)benzamide], the EC50 in test [1] (LXR beta IP (nM)) amounted to 5 nM; in test [2], 220 nM. Moreover, the Emax is 41% in test [1] and 56% in test [2].
For `CN(C)C(=O)c1ccc(NCCC[C@@H]2CC23CCN(C(=O)[C@](O)(c2ccccc2)C(F)(F)F)CC3)cc1Cl` (single isomer, unassigned) [Example 6-1, 2-chloro-N,N-dimethyl-4-(3-((R or S)-6-((R or S)-3,3,3-trifluoro-2-hydroxy-2-phenylpropanoyl)-6-azaspiro[2.5]octan-1-yl)propylamino)benzamide], the Emax amounted to 30% in test [1] (setting [3]) and 21% in test [2]. Besides, the EC50 in test [1] (read-out: LXR beta IP) was 15 nM; in test [2], 828 nM.
Consider `CN(C)C(=O)c1ccc(NCCC[C@H]2CC23CCN(C(=O)[C@](O)(c2ccccc2)C(F)(F)F)CC3)cc1Cl` (single isomer, unassigned) [Example 6-2, 2-chloro-N,N-dimethyl-4-(3-((S or R)-6-((R or S)-3,3,3-trifluoro-2-hydroxy-2-phenylpropanoyl)-6-azaspiro[2.5]octan-1-yl)propylamino)benzamide], for which the figures for the Emax in test [1] (setting [3]) and in test [2] were 56% and 11%, respectively. In addition, the EC50 in test [1] (read-out: LXR beta IP) is 8 nM; in test [2], 472 nM.
With `CN(C)C(=O)c1ccc(NCCC[C@H]2CC23CCN(C(=O)[C@](O)(c2ccccc2)C(F)(F)F)CC3)nc1Cl` (single isomer, unassigned) [Example 6-3, 2-chloro-N,N-dimethyl-6-(3-((S or R)-6-((R or S)-3,3,3-trifluoro-2-hydroxy-2-phenylpropanoyl)-6-azaspiro[2.5]octan-1-yl)propylamino)nicotin-amide], the Emax in test [1] (setting [3]) was 49%; in test [2] it was 24%. In addition, the EC50 was 14 nM in test [1] (read-out: LXR beta IP) and 1400 nM in test [2].
As to `O=C(c1ccc(NCCC[C@@H]2CC23CCN(C(=O)[C@](O)(c2ccccc2)C(F)(F)F)CC3)cc1Cl)N1CCCC1` (single isomer, unassigned) [Example 6-4, (R or S)-1-((R or S)-1-(3-(3-chloro-4-(pyrrolidine-1-carbonyl)phenylamino)propyl)-6-azaspiro[2.5]octan-6-yl)-3,3,3-trifluoro-2-hydroxy-2-phenylpropan-1-one], in test [1] (setting [3]), the Emax was 18%. Moreover, the EC50 in test [1] (read-out: LXR beta IP) stood at 34 nM. Also, in test [2], the Emax worked out at 6% and the “LXR alpha IP (nM)” value is reported as “No IP”.
Regarding `CN(C)C(=O)c1c(F)cc(NCCC[C@H]2CC23CCN(C(=O)[C@](O)(c2ccccc2)C(F)(F)F)CC3)cc1F` (single isomer, unassigned) [Example 6-5, 2,6-difluoro-N,N-dimethyl-4-(3-((S or R)-6-((R or S)-3,3,3-trifluoro-2-hydroxy-2-phenylpropanoyl)-6-azaspiro[2.5]octan-1-yl)propylamino)benzamide], the Emax stood at 24% in test [1] (setting [3]) and 19% in test [2]. In addition, the EC50 in test [1] (read-out: LXR beta IP) was 49 nM; in test [2], 2150 nM.
For `CN(C(=O)c1ccc(NCCC[C@@H]2CC23CCN(C(=O)[C@](O)(c2ccccc2)C(F)(F)F)CC3)cc1Cl)C1CC1` (single isomer, unassigned) [Example 6-6, 2-chloro-N-cyclopropyl-N-methyl-4-(3-((R or S)-6-((R or S)-3,3,3-trifluoro-2-hydroxy-2-phenylpropanoyl)-6-azaspiro[2.5]octan-1-yl)propylamino)benzamide], the Emax in test [1] (setting [3]) amounted to 43%. Moreover, the EC50 in test [1] (read-out: LXR beta IP) came to 49 nM. Also, in test [2], the Emax was found to be 0% and the “LXR alpha IP (nM)” value was “No IP”.
The like results for `CN(C)C(=O)c1ccc(NCCC[C@H]2CC23CCN(C(=O)[C@@](O)(c2ccccc2)C(F)(F)C(F)(F)F)CC3)cc1Cl` (single isomer, unassigned) [Example 6-7, 2-chloro-N,N-dimethyl-4-(3-((S or R)-6-((S or R)-3,3,4,4,4-pentafluoro-2-hydroxy-2-phenylbutanoyl)-6-azaspiro[2.5]octan-1-yl)propylamino)benzamide] were, in that order, 91%, 68 nM, 9% and “No IP”.
With `CNC(=O)c1ccc(NCCC[C@@H]2CC23CCN(C(=O)[C@@](O)(C(C)C)C(F)(F)F)CC3)cc1Cl` (single isomer, unassigned) [Example 6-8, 2-chloro-4-(3-((R or S)-6-((S or R)-2-hydroxy-3-methyl-2-(trifluoromethyl)butanoyl)-6-azaspiro[2.5]octan-1-yl)propylamino)-N-methylbenzamide], the results for the Emax in test [1] (setting [3]) and in test [2] were 91% and 65%, respectively. For the same compound, the results for the EC50 in test [1] (read-out: LXR beta IP) and in test [2] were 9 nM and 829 nM, respectively.
As for `CNC(=O)c1ccc(NCCC[C@@H]2CC23CCN(C(=O)[C@](O)(C(C)C)C(F)(F)F)CC3)cc1Cl` (single isomer, unassigned) [Example 6-9, 2-chloro-4-(3-((R or S)-6-((R or S)-2-hydroxy-3-methyl-2-(trifluoromethyl)butanoyl)-6-azaspiro[2.5]octan-1-yl)propylamino)-N-methylbenzamide], the Emax in test [1] (setting [3]) is 60%; in test [2] it was 64%. Further, the EC50 in test [1] (read-out: LXR beta IP) amounted to 21 nM; in test [2], 869 nM.
Take `CN(C)C(=O)c1ccc(N(C)CCC[C@@H]2CC23CCN(C(=O)[C@](O)(c2ccccc2)C(F)(F)F)CC3)cc1Cl` (single isomer, unassigned) [Example 7-1, 2-chloro-N,N-dimethyl-4-(methyl(3-((R or S)-6-((R or S)-3,3,3-trifluoro-2-hydroxy-2-phenylpropanoyl)-6-azaspiro[2.5]octan-1-yl)propyl)amino)benzamide]: the Emax in test [1] (setting [3]) was 103%; in test [2], 28%. Besides, the EC50 in test [1] (read-out: LXR beta IP) is 59 nM; in test [2], 683 nM.
In test [1] (LXR beta IP (nM)), `CN(C)C(=O)c1ccc(NCCC2CC23CCN(C(=O)C2(c4ccccc4)CCCC2)CC3)cc1Cl` (single isomer, unassigned) [Example 8-1, (S or R)-2-chloro-N,N-dimethyl-4-(2-(6-(1-phenylcyclopentanecarbonyl)-6-azaspiro[2.5]octan-1-yl)ethylamino)benzamide] gave an EC50 of 7 nM. For the same compound, the Emax in test [1] was 21%. In addition, in test [2], the Emax was found to be 0% and the “LXR alpha IP (nM)” value is given as “No IP”.
For `CN(C)C(=O)c1ccc(NC[C@H]2C[C@@H]2C2CCN(C(=O)[C@](O)(c3ccccc3)C(F)(F)F)CC2)cc1Cl` (single isomer, unassigned) [Example 8-2, 2-chloro-N,N-dimethyl-4-(((1S,2R or 1R,2S)-2-(1-((R or S)-3,3,3-trifluoro-2-hydroxy-2-phenylpropanoyl)piperidin-4-yl)cyclopropyl)methylamino)benzamide], the Emax in test [1] (setting [3]) stood at 75%; in test [2] it was 34%. In addition, the values for the EC50 in test [1] (read-out: LXR beta IP) and in test [2] were 14 nM and 516 nM, respectively.
In the case of `CN(C)C(=O)c1ccc(NC[C@H]2C[C@H]2C2CCN(C(=O)[C@](O)(c3ccccc3)C(F)(F)F)CC2)cc1Cl` (single isomer, unassigned) [Example 8-3, 2-chloro-N,N-dimethyl-4-(((1S,2S or 1R,2R)-2-(1-((R or S)-3,3,3-trifluoro-2-hydroxy-2-phenylpropanoyl)piperidin-4-yl)cyclopropyl)methylamino)benzamide], the results for the Emax in test [1] (setting [3]) and in test [2] were 50% and 35%, respectively. Moreover, the EC50 in test [1] (read-out: LXR beta IP) was 4 nM; in test [2], 421 nM.
